# Test results taken from paper PMC12466917, “Evolutionary selection of trimethoprim-resistant dfrA genes in lytic phages affects phage and host fitness during infection” (Science Advances, 2025).
# What was measured:
# DfrA52 = test: NADPH oxidation followed at […] nm, nonlinear regression; type: biochemical, Escherichia phage vB_EcoM_BMB16; conditions: 100 uM NADPH; dihydrofolate 5-100 uM; 50 mM Tris-HCl, 50 mM KCl, pH 7.5; ~25 C
# DfrA43 = test: as above; type: biochemical; conditions: 100 uM NADPH; dihydrofolate 5-100 uM; 50 mM Tris-HCl, 50 mM KCl, pH 7.5; ~25 C
smiles,measurement,setting,value
Nc1nc2c(c(=O)[nH]1)N=C(CNc1ccc(C(=O)N[C@@H](CCC(=O)O)C(=O)O)cc1)CN2 [dihydrofolate],Km,DfrA52,167 ± 34.8 µM
same,Km,DfrA43,47.6 ± 21.6 µM
